In article PMC4752590, “Reciprocal effects of capsaicin and menthol on thermosensation through regulated activities of TRPV1 and TRPM8” (The Journal of Physiological Sciences : JPS, 2015) one finds IC50 data, which are given here for two compounds.

Structures are written as SMILES.

The IC50 is the concentration that inhibits the measured activity by half. A low value points to greater potency in that assay.

Assay [1] deals with T1, hTRPM8 (transient receptor potential melastatin 8) (Homo sapiens, UniProt Q7Z2W7).
T1 construct: gene TRPM8; Full-length
Nature of the assay: whole-cell patch clamp in HEK293T; inhibition of […] menthol-evoked current. Format: cell-based. In general terms: Patch clamp records ionic current or voltage across a cell membrane.

For assay [2], the target named is T2, hTRPV1 (transient receptor potential vanilloid 1) (Homo sapiens, UniProt Q8NER1).
T2 construct: gene TRPV1; Full-length
The assay can be described thus: whole-cell patch clamp in HEK293T; inhibition of […] capsaicin-evoked current. The format is cell-based.

T1 sequence (Q7Z2W7 whole entry): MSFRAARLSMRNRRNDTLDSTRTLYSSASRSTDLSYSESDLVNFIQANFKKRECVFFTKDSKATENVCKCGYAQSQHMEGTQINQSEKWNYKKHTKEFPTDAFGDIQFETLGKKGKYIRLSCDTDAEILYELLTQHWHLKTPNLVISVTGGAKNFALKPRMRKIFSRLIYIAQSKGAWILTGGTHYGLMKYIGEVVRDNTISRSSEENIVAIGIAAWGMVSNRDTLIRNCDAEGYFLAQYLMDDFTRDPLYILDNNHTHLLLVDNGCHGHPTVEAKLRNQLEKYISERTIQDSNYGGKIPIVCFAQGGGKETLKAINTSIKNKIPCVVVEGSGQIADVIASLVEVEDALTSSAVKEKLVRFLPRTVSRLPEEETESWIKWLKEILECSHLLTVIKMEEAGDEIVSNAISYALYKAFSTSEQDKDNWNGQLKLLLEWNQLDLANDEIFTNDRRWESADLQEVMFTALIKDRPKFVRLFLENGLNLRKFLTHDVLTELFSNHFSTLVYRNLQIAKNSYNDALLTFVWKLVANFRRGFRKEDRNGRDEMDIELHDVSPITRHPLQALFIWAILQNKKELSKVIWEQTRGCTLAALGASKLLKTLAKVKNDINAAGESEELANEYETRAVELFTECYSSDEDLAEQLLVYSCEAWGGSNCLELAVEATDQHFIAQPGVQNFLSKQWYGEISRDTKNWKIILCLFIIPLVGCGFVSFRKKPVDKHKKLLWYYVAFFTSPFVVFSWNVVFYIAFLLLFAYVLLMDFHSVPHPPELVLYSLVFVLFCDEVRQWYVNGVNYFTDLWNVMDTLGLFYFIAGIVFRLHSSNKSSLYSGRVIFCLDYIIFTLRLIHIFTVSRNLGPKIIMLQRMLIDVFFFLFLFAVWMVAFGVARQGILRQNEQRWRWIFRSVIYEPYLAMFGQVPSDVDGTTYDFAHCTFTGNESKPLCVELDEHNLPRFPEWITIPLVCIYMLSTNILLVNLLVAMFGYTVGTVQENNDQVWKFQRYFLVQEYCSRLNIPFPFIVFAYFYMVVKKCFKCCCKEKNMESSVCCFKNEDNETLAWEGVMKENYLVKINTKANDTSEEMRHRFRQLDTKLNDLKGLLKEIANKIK
T2 sequence (Q8NER1 whole entry): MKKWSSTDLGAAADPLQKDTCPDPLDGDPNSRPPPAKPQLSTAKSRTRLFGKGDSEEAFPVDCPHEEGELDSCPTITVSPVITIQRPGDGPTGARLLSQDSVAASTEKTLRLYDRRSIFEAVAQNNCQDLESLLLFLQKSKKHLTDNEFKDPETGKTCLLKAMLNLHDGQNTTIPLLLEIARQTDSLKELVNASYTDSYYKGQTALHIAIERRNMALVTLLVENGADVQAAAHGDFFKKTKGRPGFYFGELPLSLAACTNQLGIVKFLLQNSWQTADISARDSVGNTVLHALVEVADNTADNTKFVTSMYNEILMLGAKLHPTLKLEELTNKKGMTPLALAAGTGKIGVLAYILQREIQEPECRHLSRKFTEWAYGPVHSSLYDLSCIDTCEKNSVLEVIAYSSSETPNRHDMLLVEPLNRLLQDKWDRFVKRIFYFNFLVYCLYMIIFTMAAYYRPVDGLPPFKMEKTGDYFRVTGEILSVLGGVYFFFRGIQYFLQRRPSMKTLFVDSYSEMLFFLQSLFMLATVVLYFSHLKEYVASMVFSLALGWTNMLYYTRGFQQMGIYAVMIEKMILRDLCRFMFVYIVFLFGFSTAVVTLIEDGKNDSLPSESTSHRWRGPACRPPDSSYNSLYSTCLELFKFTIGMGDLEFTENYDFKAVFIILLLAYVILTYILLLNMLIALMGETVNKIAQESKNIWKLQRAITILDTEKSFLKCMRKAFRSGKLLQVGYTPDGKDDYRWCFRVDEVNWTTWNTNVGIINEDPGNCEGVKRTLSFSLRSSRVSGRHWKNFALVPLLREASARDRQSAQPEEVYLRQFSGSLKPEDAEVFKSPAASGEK

Regarding `COc1cc(CNC(=O)CCCC/C=C/C(C)C)ccc1O` [capsaicin], the IC50 in assay [1] amounted to 39.9 ± 6.4 µM. On to `CC1CCC(C(C)C)C(O)C1` (centres unmarked) [menthol], for which inhibition in assay [2] was half-maximal at 1200 ± 200 µM (IC50).
